Here are results for 17 compounds from ChEMBL document CHEMBL1145690, “Antimalarial activity of tropical Meliaceae extracts and gedunin derivatives” (J Nat Prod, 1997).

The test system of test [1] is KB. Nature of the test: Cytotoxicity against human KB cells. The class given is functional, cell-based.
The test system of test [2] is Plasmodium falciparum. Kind of test: Antimalarial activity against Plasmodium falciparum W2 by [3H]hypoxanthine uptake. The class given is functional, organism-based.
Test [3] deals with Plasmodium falciparum. Kind of test: Antimalarial activity against Plasmodium falciparum D6 by [3H]hypoxanthine uptake relative to gedunin. The class given is functional.
Test [4] deals with KB. Kind of test: Cytotoxicity against human KB cells assessed as viability at 20000 ng/ml. The class given is functional. As to conditions: read-out: Activity.
Test [5] relates to Plasmodium falciparum. Nature of the test: Antimalarial activity against Plasmodium falciparum D6 by [3H]hypoxanthine uptake. The class given is functional, organism-based.
The test system of test [6] is Plasmodium falciparum. Kind of test: Antimalarial activity against Plasmodium falciparum. The class given is functional, organism-based.
For test [7], the system named is Plasmodium falciparum. Kind of test: Antimalarial activity against Plasmodium falciparum FCR3TC by radioisotope micro dilution assay. The class given is functional, organism-based.
Test [8] deals with Plasmodium falciparum. Kind of test: Antimalarial activity against Plasmodium falciparum at 50000 ng/ml. The class given is functional, organism-based.

Structures are written as SMILES. In brackets after ≈: the same amount, converted by molar mass. Activity calls are given as the source filed them. The rule behind the calls is not given here.

Turning to `CC(=O)O[C@@H]1C[C@H]2C(C)(C)C(=O)C=C[C@]2(C)[C@H]2CC[C@@]3(C)[C@H](c4coc(C(C)=O)c4)OC(=O)[C@H]4O[C@]43[C@@]21C`, the IC50 came out at 10.9 µg/mL (≈ 20.8 µM) in test [1], 0.156 µg/mL (≈ 0.297 µM) in test [2] and 0.832 µg/mL (≈ 1.59 µM) in test [5]. This compound also had an Activity in test [3] of 4.69%. In test [4], the viability at 20 µg/mL was 38%.
As for `CC(=O)O[C@@H]1C[C@H]2C(C)(C)C(=O)C=C[C@]2(C)[C@H]2CC[C@@]3(C)[C@H](c4ccoc4C(C)=O)OC(=O)[C@H]4O[C@]43[C@@]21C`, the values for the IC50 in test [1], in test [2] and in test [5] were 9.4 µg/mL (≈ 17.9 µM), 0.039 µg/mL (≈ 0.0743 µM) and 0.133 µg/mL (≈ 0.254 µM), respectively. In test [3], this compound yielded an Activity of 29.38%. Moreover, the viability at 20 µg/mL in test [4] was determined as 31%.
With `CC(=O)O[C@@H]1C[C@H]2C(C)(C)C(=O)[C@@H]3O[C@@H]3[C@]2(C)[C@H]2CC[C@@]3(C)[C@H](c4ccoc4)OC(=O)[C@H]4O[C@]43[C@@]21C`, the results for the IC50 in test [2] and in test [5] were 0.98 µg/mL (≈ 1.97 µM) and 2.58 µg/mL (≈ 5.17 µM), respectively. Further, in test [3], the Activity is 0.93%. Moreover, the viability at 20 µg/mL in test [4] was 81%.
`C[C@@H]1CC[C@H]2[C@@H](C)C(=O)O[C@@H]3O[C@@]4(C)CC[C@@H]1[C@]32OO4` [ARTEMISININ]: the 50% inhibitory concentration (IC50) in test [1] was > 20 µg/mL; in test [2], 0.0005 µg/mL (≈ 0.00177 µM); in test [5], 0.0018 µg/mL (≈ 0.00638 µM). Further, the Activity in test [3] is 2170%.
In test [1], `CCN(CC)CCCC(C)Nc1ccnc2cc(Cl)ccc12` (stereo unspecified) [CHLOROQUINE] came in with an IC50 of 17.4 µg/mL (≈ 54.4 µM). The compound further had an Activity in test [3] of 3000%.
Consider `CC1(C)C(=O)C=C[C@]2(C)[C@H]3CC[C@@]4(C)[C@H](c5ccoc5)OC(=O)[C@H]5O[C@]54[C@]3(C)C(=O)C[C@@H]12` [DEACETOXY-7-OXOGEDUNIN], for which the concentration for half-maximal inhibition (IC50) in test [2] and in test [5] was > 10 µg/mL throughout. The Activity in test [3] was <0.39%. Also, in test [4], the viability at 20 µg/mL came out at 99%.
Take `CC1(C)C(=O)C=C[C@]2(C)[C@H]3CC[C@@]4(C)[C@H](c5ccoc5)OC(=O)[C@H]5O[C@]54[C@]3(C)[C@H](O)C[C@@H]12` [DEACETYLGEDUNIN]: the IC50 amounted to 1.28 µg/mL (≈ 2.91 µM) in test [2] and 2.61 µg/mL (≈ 5.92 µM) in test [5]. Moreover, the Activity in test [3] is listed as 1.5%. Besides, in test [4], the viability at 20 µg/mL is 39%.
In the case of `CC(=O)O[C@@H]1C[C@H]2C(C)(C)C(=O)CC[C@]2(C)[C@H]2CC[C@@]3(C)[C@H](c4ccoc4)OC(=O)[C@H]4O[C@]43[C@@]21C` [DIHYDROGEDUNIN], the IC50 was 2.63 µg/mL (≈ 5.43 µM) in test [6], 0.84 µg/mL (≈ 1.73 µM) in test [2] and > 10 µg/mL in test [5]. Moreover, the Activity in test [3] is on record as <0.39%. Also, in test [4], the viability at 20 µg/mL was found to be 71%.
Regarding `CC(=O)O[C@@H]1C[C@H]2C(C)(C)C(=O)C=C[C@]2(C)[C@H]2CC[C@@]3(C)[C@H](c4ccoc4)OC(=O)[C@H]4O[C@]43[C@@]21C` [GEDUNIN], the IC50 in test [1] turned out to be 2.3 µg/mL (≈ 4.77 µM); in test [6], 0.72 µg/mL (≈ 1.49 µM); in test [2], 0.02 µg/mL (≈ 0.0414 µM); in test [7] it was 0.8 µg/mL (≈ 1.66 µM); in test [5] it was 0.039 µg/mL (≈ 0.0808 µM). Also, the viability at 20 µg/mL in test [4] was found to be 32%.
As to `CC(=O)O[C@@H]1C[C@H]2C(C)(C)C(=O)CC[C@]2(C)[C@H]2CC[C@@]3(C)[C@H](C4CCOC4)OC(=O)[C@H]4O[C@]43[C@@]21C` (stereo partly specified) [HEXAHYDROGEDUNIN], the IC50 in test [2] turned out to be 2.13 µg/mL (≈ 4.36 µM); in test [5] it was 10 µg/mL (≈ 20.5 µM). Further, in test [3], the Activity came to 0.39%. Further, the viability at 20 µg/mL in test [4] amounted to 99%.
As for `CCOC(=O)[C@H]1[C@@H](OC(C)=O)[C@@H]2[C@@]3(C)C=CC(=O)[C@@](C)(C(=O)OC)C3=CC(=O)[C@@]2(C)[C@@]23O[C@@H]2C[C@@H](c2ccoc2)[C@]13C` [HIRITIN], the figures for the IC50 in test [1], in test [2] and in test [5] were 0.5 µg/mL (≈ 0.861 µM), 0.096 µg/mL (≈ 0.165 µM) and 0.173 µg/mL (≈ 0.298 µM), respectively. In addition, the Activity in test [3] stood at 22.6%. Besides, the viability at 20 µg/mL in test [4] stood at 4.9%.
Take `CC1(C)O[C@H]2CC(=O)OC[C@]23[C@H]2CC[C@@]4(C)[C@H](c5ccoc5)OC(=O)[C@H]5O[C@]54[C@]2(C)C(=O)C[C@@H]13` [LIMONIN]: the result in test [8] was inactive. The IC50 in test [7] was > 100 µg/mL.
Consider `OC(c1cc(C(F)(F)F)nc2c(C(F)(F)F)cccc12)C1CCCCN1` (stereo unspecified) [MEFLOQUINE], for which the IC50 in test [1] came to 3.5 µg/mL (≈ 9.25 µM); in test [2] it was 0.0014 µg/mL (≈ 0.0037 µM); in test [5] it was 0.0075 µg/mL (≈ 0.0198 µM). In test [3], the Activity was determined as 521%.
As to `COC(=O)C[C@H]1[C@]2(C)C3=C(C)[C@H](c4ccoc4)C[C@H]3O[C@@H]2[C@@H]2OC(=O)[C@]3(C)C=CC(=O)[C@@]1(C)[C@@H]23` [NIMBOLIDE], the IC50 in test [6] was found to be 1.74 µg/mL (≈ 3.73 µM).
`C=C[C@H]1CN2CC[C@H]1C[C@H]2[C@H](O)c1ccnc2ccc(OC)cc12` [QUININE]: the IC50 in test [1] was > 20 µg/mL; in test [2], 0.0349 µg/mL (≈ 0.108 µM). The Activity in test [3] is recorded as 264%.
Turning to `CC(=O)O[C@@H]1C[C@H]2C(C)(C)C(=O)C=C[C@]2(C)[C@H]2CC[C@@]3(C)[C@H](C4CCOC4)OC(=O)[C@H]4O[C@]43[C@@]21C` (stereo partly specified) [TETRAHYDROGEDUNIN], the half-maximal inhibitory concentration (IC50) was 0.9 µg/mL (≈ 1.85 µM) in test [2] and 2.5 µg/mL (≈ 5.14 µM) in test [5]. In addition, in test [3], the Activity was 1.56%. The viability at 20 µg/mL in test [4] stood at 81%.
The like results for `CC(=O)O[C@@H]1C[C@H]2C(C)(C)[C@@H](O)CC[C@]2(C)[C@H]2CC[C@@]3(C)[C@H](c4ccoc4)OC(=O)[C@H]4O[C@]43[C@@]21C` [beta-DIHYDROGEDUNOL] were, in that order, 2.44 µg/mL (≈ 5.01 µM), 4.21 µg/mL (≈ 8.65 µM), 0.93% and 69%.
